Key:
Rattus norvegicus [1] = test: Antihypertensive activity in conscious spontaneously hypertensive rat (SHR), percent change in heart rate (beats/min) after 12 hr at 3 mg/kg peroral dose; format: functional; details: route oral
[2] = target: T1, Thromboxane-A synthase (Homo sapiens) (UniProt P24557); test: Effect of TXA2 synthase inhibitor (compound) on serum TXB2 level in rats at 50 mg/kg po, after 2 hr; format: functional, organism-based; design: dose 50 mg/kg; details: Rattus norvegicus, target entry is the homologue from another species
T1 sequence (whole entry): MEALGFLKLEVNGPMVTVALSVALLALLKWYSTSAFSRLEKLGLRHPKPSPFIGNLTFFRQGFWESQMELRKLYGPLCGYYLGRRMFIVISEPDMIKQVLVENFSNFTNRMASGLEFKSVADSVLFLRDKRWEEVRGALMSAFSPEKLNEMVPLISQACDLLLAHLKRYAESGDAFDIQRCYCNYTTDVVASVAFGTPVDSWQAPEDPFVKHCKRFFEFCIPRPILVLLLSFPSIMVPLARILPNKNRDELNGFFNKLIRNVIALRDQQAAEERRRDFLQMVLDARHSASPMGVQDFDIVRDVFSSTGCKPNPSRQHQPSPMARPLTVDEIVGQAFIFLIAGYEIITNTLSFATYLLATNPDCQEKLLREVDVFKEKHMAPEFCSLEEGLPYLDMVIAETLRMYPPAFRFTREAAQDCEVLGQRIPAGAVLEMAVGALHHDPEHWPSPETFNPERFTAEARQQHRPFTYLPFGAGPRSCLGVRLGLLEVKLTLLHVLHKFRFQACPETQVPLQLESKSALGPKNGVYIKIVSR

Rattus norvegicus [3] = test: Antihypertensive activity in conscious spontaneously hypertensive rat (SHR), percent change in Systolic blood pressure (SBP) at 3 mg/kg peroral dose after 8 hr; format: functional; details: route oral
Rattus norvegicus [4] = test: Antihypertensive activity in conscious spontaneously hypertensive rat (SHR), percent change in heart rate (beats/min) after 8 hr at 10 mg/kg peroral dose; format: functional; details: route oral
Rattus norvegicus [5] = test: (§1) Antihypertensive activity in conscious spontaneously hypertensive rat (SHR), percent change in heart rate (beats/min) after 1 hr at 3 mg/kg peroral dose; format: functional; details: route oral
Rattus norvegicus [6] = test: Antihypertensive activity in conscious spontaneously hypertensive rat (SHR), percent change in Systolic blood pressure (SBP) at 0.3 mg/kg peroral dose after 12 hr; format: functional; details: route oral
Homo sapiens [7] = species: Homo sapiens; test: Inhibition of [14C]arachidonic acid induced platelet aggregation at 50 uM (Control TXB2 = 14.9+/-2.5); format: functional
Rattus norvegicus [8] = test: Antihypertensive activity in conscious spontaneously hypertensive rat (SHR), percent change in heart rate (beats/min) after 12 hr at 0.3 mg/kg peroral dose; format: functional; details: route oral
Mus musculus [9] = test: Time course of protection against mortality in a pulmonary thromboembolism model in mice after -5 hr at 10 mg/kg; format: functional
Homo sapiens [10] = species: Homo sapiens; test: Inhibition of ADP-induced aggregation of human PRP in the absence of pig aortal microsomes (PAM); format: functional
Rattus norvegicus [11] = test: Antihypertensive activity in conscious spontaneously hypertensive rat (SHR), percent change in Systolic blood pressure (SBP) at 10 mg/kg peroral dose; format: functional; details: route oral
Rattus norvegicus [12] = test: Antihypertensive activity in conscious spontaneously hypertensive rat (SHR), percent change in heart rate (beats/min) after 4 hr at 0.3 mg/kg peroral dose; format: functional; details: route oral
Rattus norvegicus [13] = test: Antihypertensive activity in conscious spontaneously hypertensive rat (SHR), percent change in heart rate (beats/min) after 4 hr at 3 mg/kg peroral dose; format: functional; details: route oral
Rattus norvegicus [14] = test: Antihypertensive activity in conscious spontaneously hypertensive rat (SHR), percent change in heart rate (beats/min) after 2 hr; format: functional
Rattus norvegicus [15] = test: Antihypertensive activity in conscious spontaneously hypertensive rat (SHR), percent change in heart rate (beats/min) after 1 hr at 1 mg/kg peroral dose; format: functional; details: route oral
Homo sapiens [16] = species: Homo sapiens; test: In vitro inhibition of ADP-induced aggregation of human PRP in the presence of pig aortal microsomes (PAM).; format: functional
Mus musculus [17] = test: Protection against mortality in pulmonary thromboembolism model in mice at 12 mg/kg; format: functional
Homo sapiens [18] = species: Homo sapiens; test: Inhibition of [14C]arachidonic acid induced TXB2 formation at 5 uM (Control TXB2 = 14.9+/-2.5)
Rattus norvegicus [19] = test: Antihypertensive activity in conscious spontaneously hypertensive rat (SHR), percent change in Systolic blood pressure (SBP) at 3 mg/kg peroral dose after 12 hr; format: functional; details: route oral
Mus musculus [20] = test: Protection against mortality in pulmonary thromboembolism model in mice at 1 mg/kg; format: functional
Rattus norvegicus [21] = test: Antihypertensive activity in conscious spontaneously hypertensive rat (SHR), percent change in heart rate (beats/min) after 2 hr at 10 mg/kg peroral dose; format: functional; details: route oral
Rattus norvegicus [22] = test: Antihypertensive activity in conscious spontaneously hypertensive rat (SHR), percent change in heart rate (beats/min) after 4 hr at 1 mg/kg peroral dose; format: functional; details: route oral
Rattus norvegicus [23] = test: Antihypertensive activity in conscious spontaneously hypertensive rat (SHR), percent change in heart rate (beats/min) after 8 hr at 0.3 mg/kg peroral dose; format: functional; details: route oral
Rattus norvegicus [24] = test: Ex vivo inhibition of blood platelet aggregation in rats at 50 mg/kg peroral dose after 5 hr; format: functional; details: route oral
Rattus norvegicus [25] = test: Antihypertensive activity in conscious spontaneously hypertensive rat (SHR), percent change in Systolic blood pressure (SBP) at 1 mg/kg peroral dose after 12 hr; format: functional; details: route oral
Mus musculus [26] = test: Time course of protection against mortality in a pulmonary thromboembolism model in mice after -1 hr at 10 mg/kg; format: functional
Homo sapiens [27] = species: Homo sapiens; test: Inhibition of [14C]arachidonic acid induced platelet aggregation at 500 uM (Control 6-keto-PGF1-alpha = 1.45+/-0.6); format: functional
Rattus norvegicus [28] = test: Antihypertensive activity in conscious spontaneously hypertensive rat (SHR), percent change in heart rate (beats/min) after 2 hr at 0.3 mg/kg peroral dose; format: functional; details: route oral
Rattus norvegicus [29] = test: as §1; format: functional; details: route oral; remark: listed apart in the source
Rattus norvegicus [30] = test: Antihypertensive activity in conscious spontaneously hypertensive rat (SHR), percent change in Systolic blood pressure (SBP) at 0.3 mg/kg peroral dose after 8 hr; format: functional; details: route oral
Homo sapiens [31] = species: Homo sapiens; test: Inhibition of [14C]arachidonic acid induced platelet aggregation at 500 uM (Control TXB2 = 14.9+/-2.5); format: functional
Homo sapiens [32] = species: Homo sapiens; test: Ratio of IC50(PDE)/IC50(TXA2); format: functional
Rattus norvegicus [33] = test: Antihypertensive activity in conscious spontaneously hypertensive rat (SHR), percent change in Systolic blood pressure (SBP) at 10 mg/kg peroral dose after 1 hr; format: functional; details: route oral
Rattus norvegicus [34] = test: Antihypertensive activity in conscious spontaneously hypertensive rat (SHR), percent change in heart rate (beats/min) after 1 hr at 10 mg/kg peroral dose; format: functional; details: route oral
Thromboxane-A synthase = target: T2, Thromboxane-A synthase (Homo sapiens, UniProt P24557); test: Compound was evaluated for the inhibition of human blood platelet thromboxane A2 synthase
T2 sequence (P24557 whole entry): T1 sequence (whole entry)

Rattus norvegicus [35] = test: Antihypertensive activity in conscious spontaneously hypertensive rat (SHR), percent change in heart rate (beats/min) after 8 hr at 1 mg/kg peroral dose; format: functional; details: route oral
Mus musculus [36] = test: Time course of protection against mortality in a pulmonary thromboembolism model in mice after -7hr at 10 mg/kg; format: functional
Mus musculus [37] = test: Protection against mortality in pulmonary thromboembolism model in mice at 6 mg/kg; format: functional

SMILES: O=C1CCc2cc(/C=C/n3ccnc3)ccc2N1
- Change in heart rate (Rattus norvegicus [1]): 8%
- inhibition [2]: 97%
- Change in systolic BP (Rattus norvegicus [3]): -18%
- Change in heart rate (Rattus norvegicus [4]): 16%
- Change in heart rate (Rattus norvegicus [5]): -34%
- Change in systolic BP (Rattus norvegicus [6]): 1%
- inhibition at 50 µM (Homo sapiens [7]): 8%
- Change in heart rate (Rattus norvegicus [8]): -8%
- survival at 10 mg/kg (Mus musculus [9]): 60%
- IC50 (Homo sapiens [10]): 5600 nM
- Change in systolic BP (Rattus norvegicus [11]): -35%
- Change in heart rate (Rattus norvegicus [12]): -4%
- Change in heart rate (Rattus norvegicus [13]): 20%
- Change in heart rate (Rattus norvegicus [14]): 11%
- Change in heart rate (Rattus norvegicus [15]): 17%
- IC50 (Homo sapiens [16]): 1200 nM
- survival at 12 mg/kg (Mus musculus [17]): 70%
- TXB2 level at 5 µM (Homo sapiens [18]): 12.3%
- Change in systolic BP (Rattus norvegicus [19]): -3%
- survival at 1 mg/kg (Mus musculus [20]): 10%
- Change in heart rate (Rattus norvegicus [21]): 19%
- Change in heart rate (Rattus norvegicus [22]): 7%
- Change in heart rate (Rattus norvegicus [23]): -8%
- inhibition in vivo at 50 mg/kg (Rattus norvegicus [24]): 95.9%
- Change in systolic BP (Rattus norvegicus [25]): -3%
- survival at 10 mg/kg (Mus musculus [26]): 50%
- inhibition at 500 µM (Homo sapiens [27]): 21.1%
- Change in heart rate (Rattus norvegicus [28]): -13%
- Change in heart rate (Rattus norvegicus [29]): 28%
- Change in systolic BP (Rattus norvegicus [30]): -54%
- inhibition at 500 µM (Homo sapiens [31]): 4.3%
- Ratio (Homo sapiens [32]): 5.3
- Change in systolic BP (Rattus norvegicus [33]): -56%
- Change in heart rate (Rattus norvegicus [34]): 22%
- IC50 (Thromboxane-A synthase): 1200 nM
- Change in heart rate (Rattus norvegicus [35]): -5%
- survival at 10 mg/kg (Mus musculus [36]): 0%
- survival at 6 mg/kg (Mus musculus [37]): 50%

Reference: ChEMBL document CHEMBL1126161, “3,4-Dihydroquinolin-2(1H)-ones as combined inhibitors of thromboxane A2 synthase and cAMP phosphodiesterase” (J Med Chem, 1992)
